{"source": "patent US10239825B2", "about": "“Ketamine derivatives” (Auckland Uniservices Limited, priority 2013, dated 2019)", "key": {"[1]": {"conditions": "pharmacological, analgesic and anaesthetic properties; cited from earlier work"}, "[2]": {"system": "adult female Sprague-Dawley rats", "experiment": "rat infusion study: pedal withdrawal reflex PWR = 1 (analgesic effect)", "type": "in vivo", "conditions": "for minimal effective dose: Rattus norvegicus, iv, total drug administered to achieve PWR = 1, i.v. infusion; for PWR = 1 Dose, head-to-head ratio to ketamine / PWR = 1 Time, head-to-head ratio to ketamine: ratio compound/ketamine; for PWR = 1 Time: time from onset of i.v. infusion to PWR = 1", "protocol": "(§1) All animal experiments were conducted at the Ruakura Research Centre, Hamilton, New Zealand, using experimental protocols reviewed and approved by the Ruakura Animal Ethics Committee (ethics ref 12604).\n(§2) Following acquisition of baseline physiologic parameters (heart rate, respiratory rate, PWR, and righting reflex (RR)) adult female Sprague-Dawley rats of approximately 350-450 g were put under non-traumatic restraint and the marginal vein of the tail was cannulated. Ketamine or a compound of the invention at 10 mg/ml was administered via a minibore extension tube adequately secured to the tail. Infusions were commenced at a rate (weight-adjusted) to deliver 20 mg/kg/min initially (until the pedal withdrawal reflex score PWR=1), then were reduced to a rate of 6.7 mg/kg/min. Infusion rate was then titrated in an up-and-down fashion to maintain dorsal recumbency and a PWR=1 to 10 minutes before cessation. Three rats were used in each study, with each group of rats also acting as their own ketamine control. The order of study drug administration was determined by prior odds/evens randomisation with a recovery interval of at least one hour afforded between experiments. PWR and RR were recorded at 1 minute intervals throughout. The times from cessation of infusion to return of righting reflex (RRR), and from cessation of infusion to the animals displaying independent locomotion (walk) were recorded.\nPedal Withdrawal Reflex (PWR) Scoring:\nNociceptive testing in animals was conducted via 1 second application of constant pressure (firm digital pressure) over the forepaw of the animal. Pedal withdrawal reflex testing is primarily used to assess analgesic effect, and responses are graded accordingly: 0, absent; 1, flicker; 2, moderate withdrawal; 3, fast withdrawal; 4, Fast withdrawal with cry/preceding apnoea (modified from Buitrago, S. et al. J. Amer. Assoc. Lab. Animal. Sci. 2008, 47, 11-17)."}, "[3]": {"system": "adult female Sprague-Dawley rats", "experiment": "rat infusion study: loss/recovery of righting reflex and walk (anaesthetic effect)", "type": "in vivo", "conditions": "for minimal effective dose: Rattus norvegicus, iv, total drug administered to achieve loss of righting reflex, i.v. infusion, read-out: LRR Dose; for LRR Dose, head-to-head ratio to ketamine / LRR Time, head-to-head ratio to ketamine: ratio compound/ketamine; for Walk Time: time from end of infusion to independent locomotion; for RRR Time: time from end of infusion to recovery of righting reflex; for LRR Time: time from onset of i.v. infusion to loss of righting reflex, 20 mg/kg/min initially", "protocol": "as §1, §2\nLoss of Righting Reflex (LRR):\nThis is primarily used to assess anaesthetic hypnotic effect. Righting reflex is judged absent when the rat fails to right from a position of dorsal recumbency to a position of sternal recumbency on three attempts performed in rapid succession. Dose to LRR is termed effective potency."}, "[4]": {"system": "adult female Sprague-Dawley rats", "experiment": "rat infusion study: loss/recovery of righting reflex and walk (anaesthetic effect)", "type": "in vivo", "conditions": "exploratory, mostly single-animal evaluations"}, "[5]": {"conditions": "in vivo; cited from earlier work"}, "[6]": {"conditions": "average over the various experiments"}, "[7]": {"conditions": "range over the various experiments"}}, "data": [{"smiles": "CN[C@]1(c2ccccc2Cl)CCCCC1=O", "note": "[(S)-Ketamine]", "values": [{"measurement": "potency relative to the racemate", "setting": "[1]", "value": "about twice as potent"}]}, {"smiles": "CCOC(=O)CCCN(C)C1(c2ccccc2Cl)CCCCC1=O.Cl", "note": "(centres unmarked) [compound 20, Ethyl 4-((1-(2-chlorophenyl)-2-oxocyclohexyl)(methyl)amino)butanoate Hydrochloride]", "values": [{"measurement": "minimal effective dose", "setting": "[2]", "value": 196, "unit": "mg/kg"}, {"measurement": "PWR = 1 Dose, head-to-head ratio to ketamine", "setting": "[2]", "value": 6.76}, {"measurement": "PWR = 1 Time, head-to-head ratio to ketamine", "setting": "[2]", "value": 6.98}, {"measurement": "PWR = 1 Time", "setting": "[2]", "value": 600, "unit": "s"}, {"measurement": "minimal effective dose", "setting": "[3]", "value": 196, "unit": "mg/kg"}, {"measurement": "potency (in words)", "setting": "[3]; rat infusion study, discussion", "value": "less potent"}, {"measurement": "LRR Dose, head-to-head ratio to ketamine", "setting": "[3]", "value": 7.84}, {"measurement": "LRR Time, head-to-head ratio to ketamine", "setting": "[3]", "value": 8.00}, {"measurement": "Walk Time", "setting": "[3]", "value": 0, "unit": "s"}, {"measurement": "RRR Time", "setting": "[3]", "value": 0, "unit": "s"}, {"measurement": "LRR Time", "setting": "[3]", "value": 600, "unit": "s"}, {"measurement": "sedative effect (in words)", "setting": "[4]", "value": "weak sedative activity"}]}, {"smiles": "CCOC(=O)CCN(C)C1(c2ccccc2Cl)CCCCC1=O", "note": "(centres unmarked) [compound 19, Ethyl 3-((1-(2-chlorophenyl)-2-oxocyclohexyl)(methyl)amino)propanoate]", "values": [{"measurement": "minimal effective dose", "setting": "[2]", "value": 99, "unit": "mg/kg"}, {"measurement": "PWR = 1 Dose, head-to-head ratio to ketamine", "setting": "[2]", "value": 3.96}, {"measurement": "PWR = 1 Time, head-to-head ratio to ketamine", "setting": "[2]", "value": 4.20}, {"measurement": "PWR = 1 Time", "setting": "[2]", "value": 290, "unit": "s"}, {"measurement": "minimal effective dose", "setting": "[3]", "value": 95, "unit": "mg/kg"}, {"measurement": "potency (in words)", "setting": "[3]; rat infusion study, discussion", "value": "about as potent as the n-Pr norketamine esters"}, {"measurement": "recovery (in words)", "setting": "[3]; rat infusion study, discussion", "value": "very rapid recovery"}, {"measurement": "LRR Dose, head-to-head ratio to ketamine", "setting": "[3]", "value": 4.50}, {"measurement": "LRR Time, head-to-head ratio to ketamine", "setting": "[3]", "value": 4.67}, {"measurement": "Walk Time", "setting": "[3]", "value": 0, "unit": "s"}, {"measurement": "RRR Time", "setting": "[3]", "value": 0, "unit": "s"}, {"measurement": "LRR Time", "setting": "[3]", "value": 280, "unit": "s"}, {"measurement": "sedative effect (in words)", "setting": "[4]", "value": "very weak sedative effect"}]}, {"smiles": "CNC1(c2ccccc2Cl)CCCCC1=O", "note": "(racemic) [rac-ketamine, (2-o-Chlorophenyl)-2-methylamino-cyclohexanone, reference compound]", "values": [{"measurement": "half-life", "setting": "[5]", "value": "2 to 3", "unit": "h"}, {"measurement": "minimal effective dose", "setting": "[2]", "value": "26 ± 1", "unit": "mg/kg"}, {"measurement": "Time to PWR = 1, Average", "setting": "[2]; [6]", "value": "76 ± 9", "unit": "s"}, {"measurement": "Total dose to PWR = 1", "setting": "[2]; average over the various experiments (Table 4 row r8, second line so named)", "value": "26 ± 4", "unit": "mg/kg"}, {"measurement": "Time to PWR = 1, Range", "setting": "[2]; [7]", "value": "60 to 95", "unit": "s"}, {"measurement": "Total dose to PWR = 1", "setting": "[2]; range over the various experiments (Table 4 row r8, second line so named)", "value": "21 to 34", "unit": "mg/kg"}, {"measurement": "minimal effective dose", "setting": "[3]", "value": "20 ± 1", "unit": "mg/kg"}, {"measurement": "Time to RRR, Average", "setting": "[3]; [6]", "value": "1212 ± 318", "unit": "s"}, {"measurement": "Time to achieve LRR, Average", "setting": "[3]; [6]", "value": "61 ± 8", "unit": "s"}, {"measurement": "Time to walking, Average", "setting": "[3]; [6]", "value": "1709 ± 400", "unit": "s"}, {"measurement": "Total dose to LRR, Average", "setting": "[3]; average over the various experiments (Table 4 row r6)", "value": "21 ± 7", "unit": "mg/kg"}, {"measurement": "Time to RRR, Range", "setting": "[3]; [7]", "value": "863 to 2040", "unit": "s"}, {"measurement": "Time to achieve LRR, Range", "setting": "[3]; [7]", "value": "51 to 75", "unit": "s"}, {"measurement": "Time to walking, Range", "setting": "[3]; [7]", "value": "1100 to 2340", "unit": "s"}, {"measurement": "Total dose to LRR, Range", "setting": "[3]; range over the various experiments (Table 4 row r6)", "value": "17 to 27", "unit": "mg/kg"}]}]}
